Measured values from patent US10710986B2, “PD-1/PD-L1 inhibitors” (Gilead Sciences, Inc., priority 2018, dated 2020).

The compounds below were run against PD-1/PD-L1 (Homo sapiens (Human), UniProt Q9NZQ7) (assay: PD-1/PD-L1 biochemical protein-protein interaction assay (ALPHA)). Details: 0.3 nM His tagged PD-L1, 2.5 nM biotinylated Fc-PD-1, 60 minutes at 25° C., read-out: IC50 PD-L1-PD1.
PD-1/PD-L1, sequence (Q9NZQ7 19-238): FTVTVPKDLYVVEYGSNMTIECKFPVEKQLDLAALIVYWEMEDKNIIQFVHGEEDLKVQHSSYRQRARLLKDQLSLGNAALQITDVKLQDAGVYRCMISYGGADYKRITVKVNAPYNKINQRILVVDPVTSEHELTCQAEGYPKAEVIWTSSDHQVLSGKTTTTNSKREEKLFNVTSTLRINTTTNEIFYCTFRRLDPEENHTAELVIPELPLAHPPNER

Row | IC50 [nM] | SMILES
1 | 0.12 | COc1nc(-c2cccc(-c3cccc(-c4cnc(CN5CC(O)C5)c(OC)n4)c3Cl)c2Cl)cnc1CN [compound 594]
2 | 0.11 | COc1nc(-c2cccc(-c3cccc(-c4cnc(CN[C@H]5C[C@@H](C(N)=O)C5)c(OC)n4)c3Cl)c2Cl)cnc1CNC[C@@H]1CCC(=O)N1 [compound 464]
3 | 0.196 | COc1nc(-c2cccc(-c3cccc(-c4cnc(CNC[C@@H]5CCC(=O)N5)c(OC)n4)c3Cl)c2Cl)ccc1CN1CC2(CNC(=O)N2)C1 [compound 168]
4 | 0.346 | COc1nc(-c2cccc(-c3cccc(-c4cnc(CN5CCC(c6nnc[nH]6)C5)c(OC)n4)c3Cl)c2Cl)cnc1CNC[C@@H]1CCC(=O)N1 (stereo partly drawn) [compound 462]
5 | 0.064 | COc1nc(-c2cccc(-c3cccc(-c4cnc(CN5CC[C@@H](O)[C@H](C)C5)c(OC)n4)c3Cl)c2Cl)cnc1CNC[C@@H]1CCC(=O)N1 [compound 231]
6 | 0.192 | CNc1nc(-c2cccc(-c3cccc(-c4cnc(CN5CC(O)C5)c(NC)n4)c3Cl)c2Cl)cnc1CN1CC(O)C1 [compound 77]
7 | 0.12 | COc1nc(-c2cccc(-c3cccc(-c4cnc(CN(C)CCO)c(OC)n4)c3Cl)c2Cl)cnc1CNC[C@@H]1CCC(=O)N1 [compound 323]
8 | 0.064 | COc1nc(-c2cccc(-c3cccc(-c4cnc(CN5CC(O)C5)c(OC)n4)c3Cl)c2Cl)ccc1C1=NCCN1 [compound 116]
9 | 0.295 | COc1nc(-c2cccc(-c3cccc(-c4cnc(CN5C[C@H]6CC(=O)N[C@H]6C5)c(OC)n4)c3Cl)c2Cl)cnc1CNC[C@@H]1CCC(=O)N1 [compound 312]
10 | 0.327 | O=C1CCC2(CN(Cc3ncc(-c4cccc(-c5cccc(-c6cnc(CN7CC8(CCC(=O)N8)C7)c(Cl)n6)c5Cl)c4Cl)nc3Cl)C2)N1 [compound 110]
11 | 0.14 | COc1nc(-c2cccc(-c3cccc(-c4cnc(CNC[C@H]5C[C@H](O)C5)c(OC)n4)c3Cl)c2Cl)cnc1CNC[C@H]1C[C@H](O)C1 [compound 242]
12 | 0.135 | COc1nc(-c2cccc(-c3cccc(-c4cnc(CNCC5CCNC(=O)C5)c(OC)n4)c3Cl)c2Cl)cnc1CNCC1CCNC(=O)C1 (stereo not drawn) [compound 660]
13 | 0.34 | COc1nc(-c2cccc(-c3cccc(-c4cnc(CN5CC[C@H]6CNC(=O)[C@H]65)c(OC)n4)c3Cl)c2Cl)cnc1CNC[C@@H]1CCC(=O)N1 [compound 287]
14 | 0.08 | COc1nc(-c2cccc(-c3cccc(-c4cnc(CNC[C@@H]5CC(C)(C)C(=O)N5)c(OC)n4)c3Cl)c2Cl)cnc1CNC[C@@H]1CC(C)(C)C(=O)N1 [compound 244]
15 | 0.094 | COc1nc(-c2cccc(-c3cccc(-c4cnc(CNCC5CN(C(C)=O)C5)c(OC)n4)c3Cl)c2Cl)cnc1CNCC1CN(C(C)=O)C1 [compound 189]
16 | 0.475 | COc1nc(-c2cccc(-c3cccc(-c4cnc(CNCc5ccn(C)n5)c(OC)n4)c3Cl)c2Cl)cnc1CNCc1ccn(C)n1 [compound 30]
17 | 0.292 | CNc1nc(-c2cccc(-c3cccc(-c4cnc(CN5CC6(CCC(=O)N6)C5)c(NC)n4)c3Cl)c2Cl)cnc1CN1CC2(CCC(=O)N2)C1 [compound 79]
18 | 0.449 | COc1nc(-c2cccc(-c3cccc(-c4cnc(CNC[C@@H]5CCC(=O)N5)c(OC)n4)c3Cl)c2Cl)cnc1CNCc1ncccn1 [compound 420]
19 | 0.093 | COc1nc(-c2cccc(-c3cccc(-c4cnc(C5=NC[C@@H](C)N5)c(OC)n4)c3Cl)c2Cl)ccc1CNC[C@@H]1CCC(=O)N1 [compound 644]

Row | IC50 [nM] | SMILES
20 | 0.064 | COc1nc(-c2cccc(-c3cccc(-c4cnc(CN5CC[C@@H](CO)C5)c(OC)n4)c3Cl)c2Cl)cnc1CN1CC[C@@H](CO)C1 [compound 626]
21 | 0.064 | COc1nc(-c2cccc(-c3cccc(-c4cnc(CN5CC(OCC(N)=O)C5)c(OC)n4)c3Cl)c2Cl)cnc1CN1CC(OCC(N)=O)C1 [compound 657]
22 | 0.077 | COc1nc(-c2cccc(-c3cccc(-c4cnc5c(CNC[C@@H]6CCC(=O)N6)cn(C)c5n4)c3Cl)c2Cl)cnc1CNC[C@H]1CCC(=O)N1 [compound 606]
23 | 0.606 | COc1nc(-c2cccc(-c3cccc(-c4cnc(CNC5CCC(F)(F)C5)c(OC)n4)c3Cl)c2Cl)cnc1CNC[C@@H]1CCC(=O)N1 (stereo partly drawn) [compound 267]
24 | 0.191 | COc1nc(-c2cccc(-c3cccc(-c4cnc(CNC[C@@H]5CCC(=O)N5)c(OC)n4)c3Cl)c2Cl)cnc1CNCc1c[nH]nn1 [compound 35]
25 | 0.302 | CN(C)c1nc(-c2cccc(-c3cccc(-c4cnc(CNC[C@@H]5CCC(=O)N5)c(N(C)C)n4)c3Cl)c2Cl)cnc1CNC[C@@H]1CCC(=O)N1 [compound 105]
26 | 0.715 | COc1nc(-c2cccc(-c3cccc(-c4cnc(CN5CC(F)C5)c(OC)n4)c3Cl)c2Cl)cnc1CN1CC(F)C1 [compound 118]
27 | 0.104 | COc1nc(-c2cccc(-c3cccc(-c4cnc(CNC[C@@H]5CCC(=O)N5)c(OC)n4)c3Cl)c2Cl)cnc1CNCCN1CCCC1=O [compound 372]
28 | 0.115 | COc1nc(-c2cccc(-c3cccc(-c4cnc(CN5CC6(CCC(=O)N6)C5)c(OC)n4)c3Cl)c2Cl)ccc1C1=NCCN1 [compound 115]
29 | 0.071 | CN(C)c1nc(-c2cccc(-c3cccc(-c4cnc(CN5CC6(CCC(=O)N6)C5)c(N(C)C)n4)c3Cl)c2Cl)cnc1CN1CC2(CCC(=O)N2)C1 [compound 103]
30 | 1.05 | COc1nc(-c2cccc(-c3cccc(-c4cnc(CN5CC(C)(N)C5)c(OC)n4)c3Cl)c2Cl)cnc1CN1CC(C)(N)C1 [compound 621]
31 | 0.324 | COc1nc(-c2cccc(-c3cc(F)cc(-c4cnc(CN5CC(O)C5)c(OC)n4)c3Cl)c2Cl)cnc1CN1CC(O)C1 [compound 399]
32 | 0.105 | COc1nc(-c2cccc(-c3cccc(-c4cnc(CN5CCC(N6CCNC6=O)C5)c(OC)n4)c3Cl)c2Cl)cnc1CN1CCC(N2CCNC2=O)C1 (stereo not drawn) [compound 525]
33 | 0.162 | COc1nc(-c2cccc(-c3cccc(-c4cnc(CNC[C@@H]5CCC(=O)N5)c(OC)n4)c3Cl)c2Cl)cnc1CNCC(O)CN1CCCC1 (stereo partly drawn) [compound 413]
34 | 0.21 | COc1nc(-c2cccc(-c3cccc(-c4cnc(CNC[C@@H]5COC(=O)N5)c(OC)n4)c3Cl)c2Cl)cnc1CNC[C@@H]1CCC(=O)N1 [compound 246]
35 | 0.2 | COc1nc(-c2cccc(-c3cccc(-c4cnc(CN[C@H]5C[C@@H](CO)C5)c(OC)n4)c3Cl)c2Cl)cnc1CN[C@H]1C[C@@H](CO)C1 [compound 150]
36 | 0.21 | CCn1cc(CN2CC(O)C2)c2ncc(-c3cccc(-c4cccc(-c5cnc(CN6CC(O)C6)c(OC)n5)c4Cl)c3Cl)nc21 [compound 611]
37 | 0.099 | CNC(=O)NC1CN(Cc2ncc(-c3cccc(-c4cccc(-c5cnc(CN6CC(NC(=O)NC)C6)c(OC)n5)c4Cl)c3Cl)nc2OC)C1 [compound 554]
38 | 0.165 | CCNc1nc(-c2cccc(-c3cccc(-c4cnc(CN5CC6(C5)CN(C(C)=O)C6)c(NCC)n4)c3Cl)c2Cl)cnc1CN1CC2(C1)CN(C(C)=O)C2 [compound 65]

Row | IC50 [nM] | SMILES
39 | 0.887 | COc1nc(-c2cccc(-c3cccc(-c4cnc(CN[C@@H]5CCC[C@@H]5O)c(OC)n4)c3Cl)c2Cl)cnc1CN[C@@H]1CCC[C@@H]1O [compound 383]
40 | 0.171 | COc1nc(-c2cccc(-c3cccc(-c4cnc(CN[C@@H]5CCN(C6COC6)C5)c(OC)n4)c3Cl)c2Cl)cnc1CNC[C@@H]1CCC(=O)N1 [compound 333]
41 | 1.34 | CNCc1ncc(-c2cccc(-c3cccc(-c4cnc(CNC)c(NC)n4)c3Cl)c2Cl)nc1NC [compound 74]
42 | 0.313 | CCn1cc(CN2CC3(CCC(=O)N3)C2)c2ncc(-c3cccc(-c4cccc(-c5cnc(CN6CC7(CCC(=O)N7)C6)c(OC)n5)c4Cl)c3Cl)nc21 [compound 610]
43 | 0.155 | COc1nc(-c2cccc(-c3cccc(-c4cnc(CN5CC(O)C5)c(OC)n4)c3Cl)c2Cl)cnc1CNC[C@@H]1CCC(=O)N1 [compound 379]
44 | 0.525 | COC[C@H]1CCCN1Cc1ncc(-c2cccc(-c3cccc(-c4cnc(CNC[C@@H]5CCC(=O)N5)c(OC)n4)c3Cl)c2Cl)nc1OC [compound 21]
45 | 0.064 | COc1nc(-c2cccc(-c3cccc(-c4cnc5c(CN6CC7(CCC(=O)N7)C6)cn(C)c5c4)c3Cl)c2Cl)cnc1CN1CC2(CCC(=O)N2)C1 [compound 450]
46 | 0.43 | COc1nc(-c2cccc(-c3cccc(-c4cnc(CNC[C@H]5C[C@H](OC)C5)c(OC)n4)c3Cl)c2Cl)cnc1CNC[C@@H]1CCC(=O)N1 [compound 565]
47 | 0.265 | COc1nc(-c2cccc(-c3cccc(-c4cnc(CNC5CC6CC6C5)c(OC)n4)c3Cl)c2Cl)cnc1CNC[C@@H]1CCC(=O)N1 (stereo partly drawn) [compound 273]
48 | 0.386 | OC1CN(Cc2ncc(-c3cccc(-c4cccc(-c5cnc(CN6CC(O)C6)c(N6CCC6)n5)c4Cl)c3Cl)nc2N2CCC2)C1 [compound 496]
49 | 0.079 | COc1nc(-c2cccc(-c3cccc(-c4cnc(CNC[C@@H]5CCC(=O)N5)c(OC5CC5)n4)c3Cl)c2Cl)ccc1CNC[C@@H]1CCC(=O)N1 [compound 638]
50 | 0.154 | COc1nc(-c2cccc(-c3cccc(-c4cnc(CNC(C)(C)CO)c(OC)n4)c3Cl)c2Cl)cnc1CNC(C)(C)CO [compound 384]
51 | 0.146 | COc1nc(-c2cccc(-c3cccc(-c4cnc(CN5CC6(CCC(=O)N6)C5)c(OC)n4)c3Br)c2Cl)cnc1CN1CC2(CCC(=O)N2)C1 [compound 390]
52 | 0.123 | CNC(=O)C1CCN(Cc2ncc(-c3cccc(-c4cccc(-c5cnc(CC6CCN(C(=O)NC)C6)c(OC)n5)c4Cl)c3Cl)nc2OC)C1 (stereo not drawn) [compound 468]
53 | 0.332 | COc1nc(-c2cccc(-c3cccc(-c4cnc5c(CN6CC7(C6)CN(C(C)=O)C7)nn(C)c5n4)c3Cl)c2Cl)cnc1CN1CC2(C1)CN(C(C)=O)C2 [compound 489]
54 | 0.064 | COc1nc(-c2cccc(-c3cccc(-c4cnc(CN[C@H]5CC[C@H](NC(C)=O)CC5)c(OC)n4)c3Cl)c2Cl)cnc1CNC[C@H]1CCC(=O)N1 [compound 195]
55 | 0.172 | COc1nc(-c2cccc(-c3cccc(-c4cnc(CN5CC6(C5)CN(C(C)=O)C6)c(OC)n4)c3Cl)c2Cl)ccc1CNC[C@@H]1CCC(=O)N1 [compound 632]
56 | 0.19 | COc1cc(-c2cccc(-c3cccc(-c4cnc(CN5CC6(CCC(=O)N6)C5)c(OC)n4)c3Cl)c2Cl)ccc1CN1CC2(CCC(=O)N2)C1 [compound 124]
57 | 0.106 | COc1nc(-c2cccc(-c3cccc(-c4cnc(CNC5CCOCC5)c(OC)n4)c3Cl)c2Cl)cnc1CNC[C@@H]1CCC(=O)N1 [compound 509]
